Results published in the NIST ThermoML archive (doi:10.1021/je700281z).
“And” between values parts separate entries of the source, which are not always exact repeats. Identical values can stand only once.

Columns and labels:
[1] = xn = mol fraction of the nth substance listed; conditions: 101 kPa, Liquid
[2] = 101.33 kPa, Liquid; for speed of sound: sound analyzer

CCCCOCCOCCO [3,6-dioxa-1-decanol] + CCCCO
[1]
Conditions	mass density [kg/m3]
293.15 K, x1 = 0.1013	834.791
293.15 K, x1 = 0.1505	845.543
293.15 K, x1 = 0.2017	855.876
293.15 K, x1 = 0.2529	865.45
293.15 K, x1 = 0.3005	873.704
293.15 K, x1 = 0.3516	881.978
293.15 K, x1 = 0.4507	896.487
293.15 K, x1 = 0.5005	903.11
293.15 K, x1 = 0.5506	909.377
293.15 K, x1 = 0.6036	915.608
293.15 K, x1 = 0.6493	920.67
293.15 K, x1 = 0.7	925.984
293.15 K, x1 = 0.7292	928.912
293.15 K, x1 = 0.749	930.843
293.15 K, x1 = 0.8483	939.967
298.15 K, x1 = 0.0521	819.296
298.15 K, x1 = 0.15	841.555
298.15 K, x1 = 0.2022	852.057
298.15 K, x1 = 0.2535	861.607
298.15 K, x1 = 0.301	869.838
298.15 K, x1 = 0.3487	877.538
298.15 K, x1 = 0.4028	885.726
298.15 K, x1 = 0.4536	892.882
298.15 K, x1 = 0.6017	911.346
298.15 K, x1 = 0.6501	916.714
298.15 K, x1 = 0.7003	921.969
298.15 K, x1 = 0.7486	926.743
298.15 K, x1 = 0.7986	931.465
298.15 K, x1 = 0.8491	935.973
303.15 K, x1 = 0.0462	813.931
303.15 K, x1 = 0.0516	815.259
303.15 K, x1 = 0.1015	827.004
303.15 K, x1 = 0.1522	837.999
303.15 K, x1 = 0.2002	847.641
303.15 K, x1 = 0.2536	857.548
303.15 K, x1 = 0.3008	865.688
303.15 K, x1 = 0.3513	873.826
303.15 K, x1 = 0.3997	881.12
303.15 K, x1 = 0.4513	888.394
303.15 K, x1 = 0.5047	895.427
303.15 K, x1 = 0.552	901.283
303.15 K, x1 = 0.6546	912.925
303.15 K, x1 = 0.6992	917.561
303.15 K, x1 = 0.7074	918.41
303.15 K, x1 = 0.7476	922.362
303.15 K, x1 = 0.7976	927.051
303.15 K, x1 = 0.7988	927.176
303.15 K, x1 = 0.8959	935.611

CCOCCOCCO [3,6-dioxa-1-octanol]
[2]
Conditions	mass density [kg/m3]	speed of sound [m/s]
293.15 K	987.876	1392.3
298.15 K	983.336	1374.3
303.15 K	978.788	1356.6

CCOCCOCCO [3,6-dioxa-1-octanol] + CCCCO
[1]
Conditions	mass density
293.15 K, x1 = 0.0519	823.011 kg/m3
293.15 K, x1 = 0.1029	835.52 kg/m3
293.15 K, x1 = 0.1999	857.73 kg/m3
293.15 K, x1 = 0.2989	878.535 kg/m3
293.15 K, x1 = 0.3513	888.856 kg/m3
293.15 K, x1 = 0.4015	898.337 kg/m3
293.15 K, x1 = 0.4514	907.402 kg/m3
293.15 K, x1 = 0.5492	924.169 kg/m3
293.15 K, x1 = 0.5966	931.866 kg/m3
293.15 K, x1 = 0.65	940.215 kg/m3
293.15 K, x1 = 0.7002	947.765 kg/m3
293.15 K, x1 = 0.7009	947.885 kg/m3
293.15 K, x1 = 0.7015	947.962 kg/m3
293.15 K, x1 = 0.7952	961.375 kg/m3
293.15 K, x1 = 0.8477	968.507 kg/m3
293.15 K, x1 = 0.8489	968.677 kg/m3
293.15 K, x1 = 0.8966	974.953 kg/m3
293.15 K, x1 = 0.95	981.736 kg/m3
298.15 K, x1 = 0.0512	818.966 kg/m3
298.15 K, x1 = 0.1017	831.315 kg/m3
298.15 K, x1 = 0.1026	831.513 kg/m3
298.15 K, x1 = 0.151	842.801 kg/m3
298.15 K, x1 = 0.1733	847.84 kg/m3
298.15 K, x1 = 0.2524	864.926 kg/m3
298.15 K, x1 = 0.35	884.465 kg/m3
298.15 K, x1 = 0.4025	894.359 kg/m3
298.15 K, x1 = 0.449	902.763 kg/m3
298.15 K, x1 = 0.452	903.287 kg/m3
298.15 K, x1 = 0.4995	911.551 kg/m3
298.15 K, x1 = 0.5992	927.958 kg/m3
298.15 K, x1 = 0.6015	928.324 kg/m3
298.15 K, x1 = 0.6487	935.658 kg/m3
298.15 K, x1 = 0.7001	943.37 kg/m3
298.15 K, x1 = 0.7491	950.466 kg/m3 and 950.476 kg/m3
298.15 K, x1 = 0.8	957.603 kg/m3
298.15 K, x1 = 0.8086	958.782 kg/m3
298.15 K, x1 = 0.8491	964.231 kg/m3
298.15 K, x1 = 0.8982	970.663 kg/m3
303.15 K, x1 = 0.0507	814.94 kg/m3
303.15 K, x1 = 0.1007	827.098 kg/m3
303.15 K, x1 = 0.1488	838.296 kg/m3
303.15 K, x1 = 0.1539	839.456 kg/m3
303.15 K, x1 = 0.1998	849.635 kg/m3
303.15 K, x1 = 0.2025	850.231 kg/m3
303.15 K, x1 = 0.2526	860.864 kg/m3
303.15 K, x1 = 0.3035	871.188 kg/m3
303.15 K, x1 = 0.3042	871.343 kg/m3
303.15 K, x1 = 0.3492	880.114 kg/m3
303.15 K, x1 = 0.4027	890.141 kg/m3
303.15 K, x1 = 0.4543	899.435 kg/m3
303.15 K, x1 = 0.5504	915.759 kg/m3
303.15 K, x1 = 0.5525	916.103 kg/m3
303.15 K, x1 = 0.5539	916.33 kg/m3
303.15 K, x1 = 0.6	923.723 kg/m3
303.15 K, x1 = 0.6019	924.03 kg/m3
303.15 K, x1 = 0.7506	946.255 kg/m3
303.15 K, x1 = 0.8006	953.229 kg/m3
303.15 K, x1 = 0.8496	959.837 kg/m3
303.15 K, x1 = 0.949	972.571 kg/m3

CCCCO [butan-1-ol]
[2]
Conditions	mass density [kg/m3]	speed of sound [m/s]
293.15 K	809.644	1256.7
298.15 K	805.842	1239.2
303.15 K	801.995	1222.7
